Measured values reported in patent US20110092367A1, “Herbicidal Compositions Comprising 4-amino-3,6-dichloropyridine-2-carboxylic Acid” (BASF SE, priority 2008, published 2011).

Legend:
Format in all cases: in vivo
Sissimbrium officinale = experiment: Field trial Example 1, successive application: damage on SSYOF
Text: (§1) Aminiopyralid was used as commercial aquaeous solution having an active ingredient concentration of 240 g/l (Milestone™). Metazachlor was used as a commercial suspension concentrate having an active ingredient concentration of 500 g/l (Butisan S®).
(§2) The performance of aminopyralid applied as an alone treatment at 15, 30 and 50 g a.i./ha applied as an early post emergence treatment and an post emergence treatment in comparison to two different applications including metazachlor at 500 g a.i./ha as an early post emergence application in succession of aminopyralid as a post emergence application at 15 and 30 g a.i./ha was assessed in an oilseed rape field trials.
(§3) The early post emergence treatment was applied by means of fine distributed nozzles at the growth stage (GS) of the crop BBCH 11-12.
(§4) The post emergence treatment was applied by means of fine distributed nozzles at the growth stage (GS) of the crop BBCH 13-14.
(§5) The test period extended over the autumn and spring season (205 days).
(§6) In the following experiments, the herbicidal activity for the individual herbicide compounds (solo application) and of the herbicidal succession was assessed 4 times:
(§7) The evaluation for the damage on undesired weeds caused by the chemical compositions was carried out using a scale from 0 to 100%, compared to the untreated control plants. Here, 0 means no damage and 100 means complete destruction of the plants.

Centaurea cyanus = experiment: Field trial Example 2, combined application: CENCY; settings: Aminopyralid 7.5 g ai/ha solo, 78 DAT
Protocol: as §1, §7
The value E, which is to be expected if the activity of the individual compounds is just additive, was calculated using the method of S. R. Colby (1967) “Calculating synergistic and antagonistic responses of herbicide combinations”, Weeds 15, p. 22 ff.
The performance of aminopyralid, applied as an alone treatment at […] and 15 g ai/ha, and the performance of metazachlor, applied as an alone treatment at 375 and 500 g ai/ha, as well as the mixtures of the both compounds have been assessed in winter oilseed rape field trials. The trials have been conducted in Germany at two locations.
Post emergence treatment was applied by means of fine distributed nozzels at the growth stage (GS/BBCH 11/12).

Matricaria inodora = experiment: Greenhouse trial, post-emergence: MATIN; settings: post-emergence (Tables 7-9)
Protocol: (§8) The test plants have been seeded, separately for each species, in plastic containers in sandy loamy soil containing 5% organic matter.
(§9) For the post emergence treatment, the plants were first grown to the 2 leaf station (GS 12). Here, the herbicidal compositions were suspended or emulsified in water as distribution medium and sprayed using finely distributing nozzels.
(§10) The plants have been cultivated due to there individual requirements at 10-25° C. and 20-35° C. The plants were irrigated due to there necessity. […]
as §7
(§11) Calculation of expected activity of binary mixtures was done by using the Colby-Formula according to Example 1.

Lamium purpureum = experiment: Greenhouse trial, post-emergence: LAMPU; settings: for % activity 28 DAT: LAMPU
Protocol: as §8, §9, §10, §7, §11

Galium aparine = experiment: Field trial Example 1, successive application: damage on GALAP
Text: as §1, §2, §3, §4, §5, §6, §7

Papaver rhoeas = experiment: Field trial Example 1, successive application: damage on PAPRH
Text: as §1, §2, §3, §4, §5, §6, §7

Anthemis arvensis = experiment: Field trial Example 1, successive application: damage on ANTAR
Text: as §1, §2, §3, §4, §5, §6, §7

[1] = 15 g ai/ha, treatment A early post emergence, DAT 25/DALT 10
[2] = 15 g ai/ha, treatment A early post emergence, DAT 65/DALT 50
[3] = 15 g ai/ha, treatment A early post emergence, DAT 176/DALT 161
[4] = 15 g ai/ha, treatment B post emergence, DAT 25/DALT 10
[5] = 15 g ai/ha, treatment B post emergence, DAT 65/DALT 50
[6] = 15 g ai/ha, treatment B post emergence, DAT 176/DALT 161
[7] = 30 g ai/ha, treatment A early post emergence, DAT 25/DALT 10
[8] = 30 g ai/ha, treatment A early post emergence, DAT 65/DALT 50
[9] = 30 g ai/ha, treatment A early post emergence, DAT 176/DALT 161
[10] = 30 g ai/ha, treatment B post emergence, DAT 25/DALT 10
[11] = 30 g ai/ha, treatment B post emergence, DAT 65/DALT 50
[12] = 30 g ai/ha, treatment B post emergence, DAT 176/DALT 161
[13] = 50 g ai/ha, treatment A early post emergence, DAT 25/DALT 10
[14] = 50 g ai/ha, treatment A early post emergence, DAT 65/DALT 50
[15] = 50 g ai/ha, treatment A early post emergence, DAT 176/DALT 161
[16] = 50 g ai/ha, treatment B post emergence, DAT 25/DALT 10
[17] = 50 g ai/ha, treatment B post emergence, DAT 65/DALT 50
[18] = 50 g ai/ha, treatment B post emergence, DAT 176/DALT 161
[19] = aminopyralid 15 g ai/ha, treatment A, DAT 205/DALT 190
[20] = aminopyralid 15 g ai/ha, treatment B, DAT 205/DALT 190
[21] = aminopyralid 30 g ai/ha, treatment A, DAT 205/DALT 190
[22] = aminopyralid 30 g ai/ha, treatment B, DAT 205/DALT 190
[23] = aminopyralid 50 g ai/ha, treatment A, DAT 205/DALT 190
[24] = aminopyralid 50 g ai/ha, treatment B, DAT 205/DALT 190
[25] = Lamium purpureum, post-emergence, 672 h, read-out: % activity 28 DAT, LAMPU

Structure (SMILES): Nc1cc(Cl)nc(C(=O)O)c1Cl [aminopyralid, 4-amino-3,6-dichloropyridine-2-carboxylic acid]
- damage on SSYOF (Sissimbrium officinale; [1]): 33%
- damage on SSYOF (Sissimbrium officinale; [2]): 0%
- damage on SSYOF (Sissimbrium officinale; [3]): 0%
- damage on SSYOF (Sissimbrium officinale; [4]): 53%
- damage on SSYOF (Sissimbrium officinale; [5]): 0%
- damage on SSYOF (Sissimbrium officinale; [6]): 0%
- damage on SSYOF (Sissimbrium officinale; [7]): 71%
- damage on SSYOF (Sissimbrium officinale; [8]): 25%
- damage on SSYOF (Sissimbrium officinale; [9]): 25%
- damage on SSYOF (Sissimbrium officinale; [10]): 60%
- damage on SSYOF (Sissimbrium officinale; [11]): 27%
- damage on SSYOF (Sissimbrium officinale; [12]): 27%
- damage on SSYOF (Sissimbrium officinale; [13]): 86%
- damage on SSYOF (Sissimbrium officinale; [14]): 50%
- damage on SSYOF (Sissimbrium officinale; [15]): 50%
- damage on SSYOF (Sissimbrium officinale; [16]): 72%
- damage on SSYOF (Sissimbrium officinale; [17]): 32%
- damage on SSYOF (Sissimbrium officinale; [18]): 32%
- damage on SSYOF (Sissimbrium officinale; [19]): 0%
- damage on SSYOF (Sissimbrium officinale; [20]): 0%
- damage on SSYOF (Sissimbrium officinale; [21]): 23%
- damage on SSYOF (Sissimbrium officinale; [22]): 50%
- damage on SSYOF (Sissimbrium officinale; [23]): 62%
- damage on SSYOF (Sissimbrium officinale; [24]): 52%
- % activity (Centaurea cyanus): 98%
- % activity 28 DAT (Matricaria inodora; aminopyralid 5 g ai/ha solo): 35%
- % activity 28 DAT (Matricaria inodora; aminopyralid 10 g ai/ha solo): 80%
- % activity 28 DAT (Lamium purpureum; aminopyralid 5 g ai/ha solo, post-emergence (Table 10)): 20%
- % activity 28 DAT (Lamium purpureum; aminopyralid 5 g ai/ha solo, post-emergence (Tables 7-9)): 30%
- % activity 28 DAT (Lamium purpureum; aminopyralid 10 g ai/ha solo, post-emergence (Table 10)): 30%
- % activity 28 DAT (Lamium purpureum; aminopyralid 10 g ai/ha solo, post-emergence (Tables 7-9)): 65%
- inhibition at 5 g/ha (Lamium purpureum; [25]): 20%
- inhibition at 10 g/ha (Lamium purpureum; [25]): 30%
- damage on GALAP (Galium aparine; [1]): 67%
- damage on GALAP (Galium aparine; [2]): 77%
- damage on GALAP (Galium aparine; [3]): 86%
- damage on GALAP (Galium aparine; [4]): 72%
- damage on GALAP (Galium aparine; [5]): 78%
- damage on GALAP (Galium aparine; [6]): 82%
- damage on GALAP (Galium aparine; [7]): 92%
- damage on GALAP (Galium aparine; [8]): 96%
- damage on GALAP (Galium aparine; [9]): 96%
- damage on GALAP (Galium aparine; [10]): 72%
- damage on GALAP (Galium aparine; [11]): 78%
- damage on GALAP (Galium aparine; [12]): 86%
- damage on GALAP (Galium aparine; [13]): 99%
- damage on GALAP (Galium aparine; [14]): 99%
- damage on GALAP (Galium aparine; [15]): 100%
- damage on GALAP (Galium aparine; [16]): 87%
- damage on GALAP (Galium aparine; [17]): 87%
- damage on GALAP (Galium aparine; [18]): 89%
- damage on GALAP (Galium aparine; [19]): 88%
- damage on GALAP (Galium aparine; [20]): 87%
- damage on GALAP (Galium aparine; [21]): 93%
- damage on GALAP (Galium aparine; [22]): 91%
- damage on GALAP (Galium aparine; [23]): 100%
- damage on GALAP (Galium aparine; [24]): 93%
- damage on PAPRH (Papaver rhoeas; [1]): 93%
- damage on PAPRH (Papaver rhoeas; [2]): 93%
- damage on PAPRH (Papaver rhoeas; [3]): 96%
- damage on PAPRH (Papaver rhoeas; [4]): 72%
- damage on PAPRH (Papaver rhoeas; [5]): 75%
- damage on PAPRH (Papaver rhoeas; [6]): 96%
- damage on PAPRH (Papaver rhoeas; [7]): 98%
- damage on PAPRH (Papaver rhoeas; [8]): 95%
- damage on PAPRH (Papaver rhoeas; [9]): 99%
- damage on PAPRH (Papaver rhoeas; [10]): 72%
- damage on PAPRH (Papaver rhoeas; [11]): 80%
- damage on PAPRH (Papaver rhoeas; [12]): 96%
- damage on PAPRH (Papaver rhoeas; [13]): 100%
- damage on PAPRH (Papaver rhoeas; [14]): 100%
- damage on PAPRH (Papaver rhoeas; [15]): 100%
- damage on PAPRH (Papaver rhoeas; [16]): 80%
- damage on PAPRH (Papaver rhoeas; [17]): 85%
- damage on PAPRH (Papaver rhoeas; [18]): 97%
- damage on PAPRH (Papaver rhoeas; [19]): 97%
- damage on PAPRH (Papaver rhoeas; [20]): 97%
- damage on PAPRH (Papaver rhoeas; [21]): 98%
- damage on PAPRH (Papaver rhoeas; [22]): 100%
- damage on PAPRH (Papaver rhoeas; [23]): 100%
- damage on PAPRH (Papaver rhoeas; [24]): 98%
- damage on ANTAR (Anthemis arvensis; [1]): 97%
- damage on ANTAR (Anthemis arvensis; [2]): 96%
- damage on ANTAR (Anthemis arvensis; [3]): 100%
- damage on ANTAR (Anthemis arvensis; [4]): 87%
- damage on ANTAR (Anthemis arvensis; [5]): 87%
- damage on ANTAR (Anthemis arvensis; [6]): 98%
- damage on ANTAR (Anthemis arvensis; [7]): 100%
- damage on ANTAR (Anthemis arvensis; [8]): 98%
- damage on ANTAR (Anthemis arvensis; [9]): 100%
- damage on ANTAR (Anthemis arvensis; [10]): 82%
- damage on ANTAR (Anthemis arvensis; [11]): 91%
- damage on ANTAR (Anthemis arvensis; [12]): 100%
- damage on ANTAR (Anthemis arvensis; [13]): 100%
- damage on ANTAR (Anthemis arvensis; [14]): 100%
- damage on ANTAR (Anthemis arvensis; [15]): 100%
- damage on ANTAR (Anthemis arvensis; [16]): 93%
- damage on ANTAR (Anthemis arvensis; [17]): 94%
- damage on ANTAR (Anthemis arvensis; [18]): 98%
- damage on ANTAR (Anthemis arvensis; [19]): 100%
- damage on ANTAR (Anthemis arvensis; [20]): 100%
- damage on ANTAR (Anthemis arvensis; [21]): 100%
- damage on ANTAR (Anthemis arvensis; [22]): 100%
- damage on ANTAR (Anthemis arvensis; [23]): 100%
- damage on ANTAR (Anthemis arvensis; [24]): 100%
